Drawing on ChEMBL document CHEMBL4610076, “Renoprotective Mono- and Triterpenoids from the Fruit of Gardenia jasminoides” (J Nat Prod, 2020), this text covers EC50 for 31 molecules.

This test deals with NRK-52E. Kind of test: Cytoprotective activity against LPS-induced NRK-52E cells assessed as reduction in cell death measured every 5 min for 72 hrs by xCELLigence based RTCA analysis. It is filed as functional. The conditions noted are these: Rattus norvegicus.
Turning to `CC1=CC(=O)CC(C)(C)[C@]1(O)CO`, the EC50 was > 100 µM.
`Cc1c(C)c2c(c(C)c1O)CCC(C)(C(=O)O)O2` (stereo unspecified) [TROLOX]: the EC50 was found to be 1.9 µM.
The value for `CC1(C)CC(=O)C=C(C(=O)O)[C@@]1(C)O` was > 100 µM; that for `C=C1C(CO[C@@H]2O[C@H](COC(=O)/C=C/c3cc(OC)c(O)c(OC)c3)[C@@H](O)[C@H](O)[C@H]2O)=CC(=O)CC1(C)C` was > 100 µM; that for `C[C@H]1[C@H](C)CC[C@]2(C(=O)O)CC[C@]3(C)C(=CC[C@@H]4[C@@]5(C)CC[C@H](O)[C@@](C)(CO)[C@@H]5CC[C@]43C)[C@H]12` was > 100 µM.
The figure for `CC1=C(CO)C(C)(C)C[C@H](O)[C@@H]1O` is > 100 µM; for `C=C(C)[C@@H]1CC[C@@H]2[C@]3(CC[C@]4(C)[C@@H]([C@@H]5CC[C@H]([C@](C)(O)CO)OC5)CC[C@@]24C)C[C@]13CCC(=O)OC` it is > 100 µM.
For `C[C@@H]1CC[C@]2(C(=O)O)CC[C@]3(C)C(=CC[C@@H]4[C@@]5(C)CC[C@H](O)[C@@](C)(CO)[C@@H]5[C@H](O)C[C@]43C)[C@@H]2[C@]1(C)O`, the concentration giving a half-maximal response (EC50) is > 100 µM.
With `CC1(C)CC[C@]2(C(=O)O)CC[C@]3(C)C(=CC[C@@H]4[C@@]5(C)CC[C@H](O)[C@@](C)(CO)[C@@H]5[C@H](O)C[C@]43C)[C@@H]2[C@@H]1O`, the concentration for a half-maximal effect (EC50) was determined as 0.118 µM.
The figure for `CC1=C(CO)C(C)(C)C[C@H](O)[C@@H]1O[C@@H]1O[C@H](CO)[C@@H](O)[C@H](O)[C@H]1O` is > 100 µM; for `C[C@@H]1CC[C@]2(C(=O)O)CC[C@]3(C)C(=CC[C@@H]4[C@@]5(C)CC[C@H](O)C(C)(C)[C@@H]5CC[C@]43C)[C@@H]2[C@]1(C)O` [POMOLIC ACID] it is 0.0142 µM; for `CC1=C(C(=O)O[C@@H]2O[C@H](CO)[C@@H](O)[C@H](O)[C@H]2O)C(C)(C)CC[C@@H]1O` it is > 100 µM.
The value for `CC1=CC(=O)CC(C)(C)[C@H]1CO[C@@H]1O[C@H](CO)[C@@H](O)[C@H](O)[C@H]1O` was 1.2 µM; that for `C=C(C)[C@@H]1CC[C@@H]2[C@]3(CC[C@]4(C)[C@@H]([C@H](CO)CC/C=C(/C)CO)CC[C@@]24C)C[C@]13CCC(=O)O` was 11.5 µM; that for `CO[C@H]1C[C@]2(C)C(=CC[C@@H]3[C@@]4(C)CC[C@H](O)C(CO)(CO)[C@@H]4CC[C@]32C)c2c1ccc(C)c2C` was > 100 µM.
Regarding `C=C(C)[C@@H]1CC[C@@H]2[C@]3(CC[C@]4(C)[C@@H]([C@@H]5CC[C@H]([C@](C)(O)CO)OC5)CC[C@@]24C)C[C@]13CCC(=O)O`, the EC50 was 38.4 µM.
The figure for `C=C(C)[C@@H]1CC[C@@H]2[C@]3(CC[C@]4(C)[C@@H]([C@H](CO)CC/C=C(/C)CO)CC[C@@]24C)C[C@]13CCC(=O)OC` is > 100 µM; for `CC1(C)C[C@H](O)[C@H](O[C@@H]2O[C@H](CO)[C@@H](O)[C@H](O)[C@H]2O)C2=C1C(=O)OC2` it is > 100 µM; for `CC1(C)CC(O)CC2=C1C(=O)OC2` (stereo unspecified) it is > 100 µM.
In the case of `CC1=C(CO)C(C)(C)C[C@H](O)[C@H]1O`, the 50% effective concentration (EC50) is > 100 µM.
The figure for `CC1=C(C(=O)O)C(C)(C)[C@@H](O)[C@H](O)C1` is > 100 µM; for `CC1=CC(=O)CC(C)(C)[C@@H]1CO[C@@H]1O[C@H](CO)[C@@H](O)[C@H](O)[C@H]1O` it is > 100 µM.
The figure for `CC1(C)CC(=O)C=C(C(=O)O)[C@]1(C)O` is > 100 µM; for `CC1=C(C(=O)O)C(C)(C)C=CC1=O` it is > 100 µM.
The figure for `C=C(CO)[C@@H]1CC[C@@H]2[C@]3(CC[C@]4(C)[C@@H]([C@H](CO)CC/C=C(/C)CO)CC[C@@]24C)C[C@]13CCC(=O)OC` is > 100 µM; for `CC1=C(C(=O)O)C(C)(C)C[C@H](O)[C@@H]1O` it is 0.146 µM; for `COc1cc(/C=C/C(=O)OC[C@H]2O[C@@H](OC[C@H]3C(C)=CC(=O)CC3(C)C)[C@H](O)[C@@H](O)[C@@H]2O)cc(OC)c1O` it is 35.6 µM.
With `COC(=O)CC[C@]12C[C@]13CC[C@]1(C)[C@@H]([C@H](CO)CC/C=C(/C)CO)CC[C@@]1(C)[C@@H]3CC[C@H]2C(C)(C)O`, the EC50 came out at 26.8 µM.
The figure for `Cc1ccc2c(c1C)C1=CC[C@@H]3[C@@]4(C)CC[C@H](O)C(CO)(CO)[C@@H]4CC[C@@]3(C)[C@]1(C)C[C@@H]2O` is > 100 µM.
Regarding `CC1=CC(=O)CC(C)(C)[C@@H]1CO`, the EC50 came to 1.4 µM.
The figure for `C[C@@H]1CC[C@]2(C(=O)O)CC[C@]3(C)C(=CC[C@@H]4[C@@]5(C)CC[C@H](O)C(CO)(CO)[C@@H]5CC[C@]43C)[C@@H]2[C@]1(C)O` is 1.6 µM.
